Measured values as given in ChEMBL document CHEMBL4419172, “Small molecule inhibitors of polynucleotide kinase/phosphatase, poly(ADP-ribose) polymerase and uses thereof” (2017).
The source made the active and inactive calls. The calls are words filed in the database; no cut-off is given here. Starred links: 1 amine or outer side, 2 acyl side, 3 side chain; linkers in the order of their positions; H or OH if unused. Positions of bridges follow the written chain, without caps; N, C: chain ends. Non-standard residues stand in square brackets, D forms with d. Residues, ends and D or L forms follow the SMILES beside them. Adda = CO[C@@H](Cc1ccccc1)[C@@H](C)/C=C(C)/C=C/[C@H](N[*:1])[C@H](C)C(=O)[*:2]; dAsp(3S-Me) = C[C@H](C(=O)[*:3])[C@@H](N[*:1])C(=O)[*:2]; d(γGlu) = O=C(O)[C@@H](CCC(=O)[*:2])N[*:1]; NMeDha = C=C(NC)C(=O)O

Tests used:
M059J = assay: Antiproliferative activity against human M059J cells expressing non-functional DNA dependent protein kinase assessed as reduction in cell survival at 1 to 5 uM by MTS assay; format: cell-based
A549 [1] = assay: Antiproliferative activity against PNKP-depleted and DNA polymerase-beta dominant negative human A549 cells assessed as reduction in cell survival at 1 to 5 uM by MTS assay; format: functional, cell-based
MDA-MB-231 [2] = assay: Radiosensitizer activity in PNKP-depleted human MDA-MB-231 cells assessed as reduction in cell survival at 1 uM pre-incubated for 2 hrs prior to gamma irradiation and further incubated for 24 hrs and measured after 14 days by crystal violet staining based by clonogenic assay relative to control; format: functional
MDA-MB-231 [3] = assay: Radiosensitizer activity in human MDA-MB-231 cells assessed as reduction in cell survival at 1 uM pre-incubated for 2 hrs prior to gamma irradiation and further incubated for 24 hrs and measured after 14 days by crystal violet staining based by clonogenic assay relative to control; format: functional
A549 [4] = assay: Radiosensitizer activity in PNKP-depleted human A549 cells assessed as reduction in cell survival at 1 uM pre-incubated for 2 hrs prior to gamma irradiation and further incubated for 24 hrs and measured after 14 days by crystal violet staining based by clonogenic assay relative to control; format: functional
A549 [5] = assay: Radiosensitizer activity in human A549 cells assessed as reduction in cell survival at 1 uM pre-incubated for 2 hrs prior to gamma irradiation and further incubated for 24 hrs and measured after 14 days by crystal violet staining based by clonogenic assay relative to control; format: functional
A549 [6] = assay: Chemosensitizer activity in human A549 cells assessed as reduction in cell survival at 1 uM pre-incubated for 2 hrs prior to camptothecin and further incubated for 24 hrs and measured after 10 to 14 days by crystal violet staining based by clonogenic assay relative to control; format: functional
MDA-MB-231 [7] = assay: Cytotoxicity against human MDA-MB-231 cells assessed as reduction in cell proliferation at 1 uM incubated for 72 hrs by cell-titer 96 aqueous non-radioactive cell proliferation assay; format: cell-based; conditions: mda-mb-231, 72 h
A549 [8] = assay: Cytotoxicity against human A549 cells assessed as reduction in cell proliferation at 1 uM incubated for 72 hrs by cell-titer 96 aqueous non-radioactive cell proliferation assay; format: cell-based; conditions: a549, 72 h
[9] = Cytotoxicity against human MDA-MB-231 cells assessed as reduction in cell proliferation at >100 uM incubated for 72 hrs by cell-titer 96 aqueous non-radioactive cell proliferation assay; format: cell-based
[10] = Cytotoxicity against human A549 cells assessed as reduction in cell proliferation at >100 uM incubated for 72 hrs by cell-titer 96 aqueous non-radioactive cell proliferation assay; format: cell-based
[11] = Cytotoxicity against human MDA-MB-231 cells assessed as reduction in cell proliferation at 100 uM incubated for 72 hrs by cell-titer 96 aqueous non-radioactive cell proliferation assay; format: cell-based
[12] = Cytotoxicity against human A549 cells assessed as reduction in cell proliferation at 100 uM incubated for 72 hrs by cell-titer 96 aqueous non-radioactive cell proliferation assay; format: cell-based
Rattus norvegicus [13] = species on record: Rattus norvegicus; assay: Inhibition of rat delta-calcineurin expressed in Escherichia coli assessed as reduction in phosphatase activity by measuring release of inorganic phosphate at 83.3 uM using 5'-TAMRA-tagged 20-mer oligonucleotide as substrate incubated for 30 mins by fluorescence quenching based assay
[14] = target: Serine/threonine-protein phosphatase PP1-gamma catalytic subunit (Homo sapiens) (UniProt P36873); assay: Inhibition of human PP-1cgamma expressed in Escherichia coli assessed as reduction in phosphatase activity by measuring release of inorganic phosphate at 83.3 uM using 5'-TAMRA-tagged 20-mer oligonucleotide as substrate incubated for 30 mins by fluorescence quenching based assay
Chain of Serine/threonine-protein phosphatase PP1-gamma catalytic subunit (Homo sapiens) (P36873 2-323 limits assumed): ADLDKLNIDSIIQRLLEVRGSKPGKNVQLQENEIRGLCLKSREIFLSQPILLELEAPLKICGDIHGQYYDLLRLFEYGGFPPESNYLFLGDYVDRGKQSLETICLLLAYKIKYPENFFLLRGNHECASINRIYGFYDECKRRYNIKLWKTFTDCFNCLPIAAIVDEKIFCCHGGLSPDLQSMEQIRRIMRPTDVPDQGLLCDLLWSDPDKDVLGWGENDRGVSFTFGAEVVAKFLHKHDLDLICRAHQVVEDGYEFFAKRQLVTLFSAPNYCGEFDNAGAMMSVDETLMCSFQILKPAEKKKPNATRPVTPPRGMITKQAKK

Aprataxin (Homo sapiens) = Aprataxin (Homo sapiens) (UniProt Q7Z2E3); assay: Inhibition of human APTX assessed as reduction in phosphatase activity by measuring release of inorganic phosphate at 50 uM using 5'-TAMRA-tagged 20-mer oligonucleotide as substrate incubated for 30 mins by fluorescence quenching based assay
Chain of Aprataxin (Homo sapiens) (Q7Z2E3 whole entry): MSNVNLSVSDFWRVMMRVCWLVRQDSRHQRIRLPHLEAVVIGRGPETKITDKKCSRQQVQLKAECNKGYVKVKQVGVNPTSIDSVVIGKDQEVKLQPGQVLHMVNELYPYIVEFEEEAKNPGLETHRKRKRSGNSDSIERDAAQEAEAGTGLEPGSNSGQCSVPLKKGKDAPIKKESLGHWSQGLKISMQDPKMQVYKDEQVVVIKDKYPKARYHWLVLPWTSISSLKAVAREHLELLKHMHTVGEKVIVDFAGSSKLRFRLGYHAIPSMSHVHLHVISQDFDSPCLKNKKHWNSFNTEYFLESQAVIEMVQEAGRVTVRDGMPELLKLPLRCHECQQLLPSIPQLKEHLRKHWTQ

[15] = target: Bifunctional polynucleotide phosphatase/kinase (Mus musculus) (UniProt Q9JLV6); assay: Inhibition of mouse PNKP assessed as reduction in PNKP 3'-phosphatase activity by measuring release of inorganic phosphate at 5 to 50 uM using 5'-TAMRA-tagged 20-mer oligonucleotide as substrate incubated for 30 mins by fluorescence quenching based assay
Chain of Bifunctional polynucleotide phosphatase/kinase (Mus musculus) (Q9JLV6 whole entry): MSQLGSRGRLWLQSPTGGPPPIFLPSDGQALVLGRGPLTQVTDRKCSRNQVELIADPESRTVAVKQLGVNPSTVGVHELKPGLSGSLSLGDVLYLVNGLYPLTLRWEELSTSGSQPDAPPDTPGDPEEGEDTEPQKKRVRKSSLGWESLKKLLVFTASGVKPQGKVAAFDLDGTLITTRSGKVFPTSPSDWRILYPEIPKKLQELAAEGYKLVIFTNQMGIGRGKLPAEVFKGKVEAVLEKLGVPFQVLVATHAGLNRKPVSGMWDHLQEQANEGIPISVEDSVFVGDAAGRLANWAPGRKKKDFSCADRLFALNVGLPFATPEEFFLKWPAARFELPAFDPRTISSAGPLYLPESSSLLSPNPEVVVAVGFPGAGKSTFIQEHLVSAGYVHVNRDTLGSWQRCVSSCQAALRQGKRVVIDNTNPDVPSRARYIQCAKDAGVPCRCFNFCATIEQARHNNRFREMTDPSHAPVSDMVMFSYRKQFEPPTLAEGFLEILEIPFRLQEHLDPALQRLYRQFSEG

Rattus norvegicus [16] = species on record: Rattus norvegicus; assay: Inhibition of rat delta-calcineurin expressed in Escherichia coli assessed as reduction in phosphatase activity by measuring release of inorganic phosphate using 5'-TAMRA-tagged 20-mer oligonucleotide as substrate incubated for 30 mins by fluorescence quenching based assay

| SMILES | Activity (M059J) | Activity (A549 [1]) | Activity (MDA-MB-231 [2]) | Activity (MDA-MB-231 [3]) | Activity (A549 [4]) | fold change (FC) (A549 [5]) | Activity (A549 [6]) | Activity (MDA-MB-231 [7]) | Activity (A549 [8]) | inhibition at 72 h [9] [%] | inhibition at 72 h [10] [%] | inhibition at 72 h, 100 µM [11] [%] | inhibition at 72 h, 100 µM [12] [%] | inhibition (Rattus norvegicus [13]) | inhibition [14] | inhibition (Aprataxin (Homo sapiens)) | inhibition [15] | inhibition (Rattus norvegicus [16]) |
| --- | --- | --- | --- | --- | --- | --- | --- | --- | --- | --- | --- | --- | --- | --- | --- | --- | --- | --- |
| CCCCCCCCCCC(O)C1C=CC2C(=O)N(c3ccccc3)C(=O)C2N1Nc1ccc([N+](=O)[O-])cc1 (stereo not drawn) | inactive | Active | inactive | Active | inactive | 2 | Active | Non-Toxic | Non-Toxic | ≤ 50 | ≤ 50 | ≤ 50 | ≤ 50 | inactive | inactive | inactive | Active | – |
| C=C1C(=O)N[C@H](C)C(=O)N[C@@H](CC(C)C)C(=O)N[C@@H](C(=O)O)[C@H](C)C(=O)N[C@@H](CCCNC(=N)N)C(=O)N[C@@H](/C=C/C(C)=C/[C@H](C)[C@H](Cc2ccccc2)OC)[C@H](C)C(=O)N[C@@H](C(=O)O)CCC(=O)N1C (R[Adda][d(γGlu)][NMeDha][dA]L[dAsp(3S-Me)]-OH; lactam N-7) | – | – | – | – | – | – | – | – | – | – | – | – | – | – | – | – | – | Active |
